Values of other authors, collected in article PMC8513935.

Experiments:
[1] = experimental, compiled by the authors from the literature (the ESI cites the sources)
[2] = derived by the authors as gas->solvent minus gas->water (a hypothetical dry solvent; the ESI), not a two-phase measurement; settings: 25 C

Row | Structure (SMILES) | log K of transfer, gas to solvent ([1]; Hexadecane, 25 C) [log10 K] | log K of transfer, gas to solvent ([1]; Water, 25 C) [log10 K] | also measured
1 | CCCCCCCCCCCCCCCCCCCO | 10.2 | 1.66 | 
2 | CCCCNC(C)=O | 4.58 | 6.57 | 
3 | C=CCCCCCCCC | 4.53 | -1.64 | 
4 | CCCCC1CCCCC1 | 4.8 | -1.44 | 
5 | CC1CCCCC1=O (centres unmarked) | 4.05 | 3.07 | 
6 | Cc1ccncc1C | 4.31 | 3.83 | 
7 | C[C@@H]1CCCC[C@@H]1C | 3.85 | -1.17 | 
8 | CC(=O)C1CCCCC1 | 4.62 | 3.28 | 
9 | Oc1ccc(F)cc1 | 3.84 | 4.54 | log K of transfer, gas to solvent ([1]; 1,2-Dichloroethane, 25 C): 5.25 log10 K; log K of transfer, gas to solvent ([1]; CCl4, 25 C): 4.28 log10 K
10 | CCCCCCc1ccccc1 | 5.72 | 0.03 | log K of transfer, gas to solvent ([1]; Methanol, 25 C): 5.23 log10 K; log K of transfer, water to solvent ([2]; Hexadecane): 5.69 log10 K; log K of transfer, water to solvent ([2]; Methanol): 5.2 log10 K
11 | CNC(C)=O | 2.97 | 6.88 | log K of transfer, water to solvent ([2]; Hexadecane): -3.9 log10 K
12 | CN1CCCC1=O | 3.83 | 5.74 | 
13 | Cc1ccc(C)nc1 | 3.98 | 3.46 | 
14 | Fc1cccc(Cl)c1 | 3.53 | 0.65 | 
15 | CCCCNCCCC | 4.35 | 2.38 | log K of transfer, water to solvent ([2]; Hexadecane): 1.97 log10 K
16 | CC1CCNCC1 | 3.23 | 3.15 | 
17 | CCOC | 1.59 | 1.54 | 
18 | CCCCCCCN | 4.15 | 2.78 | log K of transfer, water to solvent ([2]; Hexadecane): 1.37 log10 K
